Assays:
[1] = system: E. coli; assay: Ionic strength effect on antimicrobial activity; format: cell-based; settings: 25 μM polypeptide
Experimental: For example, reducing the ionic strength from 150 mM NaCl to 50 mM NaCl reduces the number of viable bacteria after exposure by ˜10,000-fold.
Determining ionic strength effect on antimicrobial activity. E. coli were cultured overnight as described earlier. […] To control for the effects of salt alone on culture growth, the ratio of CFU in polypeptide treated cultures to that in untreated control cultures, grown in the same salt concentration but lacking any polypeptide treatment, was calculated for each salt concentration examined. These values were then normalized to the ratio calculated for CFUs measured at […], the lowest salt concentration tested, and plotted on the Y-axis versus increasing concentration of salt on the X-axis.

[2] = target: T1, cathepsin D (Bos taurus, UniProt P80209); assay: Exposure of LF digest to cathepsin D, persistence of the 6 kDa polypeptide; format: in vitro ADME, bovine; settings: immunoblot
T1 construct: Prior to digestion with bovine spleen cathepsin D (Sigma); purchased Sigma; host or cells: bovine spleen (tissue-derived enzyme)
T1 sequence (P80209 45-390): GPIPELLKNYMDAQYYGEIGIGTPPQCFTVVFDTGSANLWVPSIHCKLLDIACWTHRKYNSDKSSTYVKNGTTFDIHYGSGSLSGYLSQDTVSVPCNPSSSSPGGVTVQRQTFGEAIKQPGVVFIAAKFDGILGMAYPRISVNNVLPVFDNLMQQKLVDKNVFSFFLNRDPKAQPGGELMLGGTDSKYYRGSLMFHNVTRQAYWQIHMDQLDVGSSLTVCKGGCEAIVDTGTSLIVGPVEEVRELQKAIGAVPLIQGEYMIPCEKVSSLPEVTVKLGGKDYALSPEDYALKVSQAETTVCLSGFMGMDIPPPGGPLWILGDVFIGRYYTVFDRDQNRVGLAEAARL
Excerpt: To establish which protease(s) could be responsible for releasing the N-terminal domain, LF processing by several proteases relevant to inflammation or microbial infections, including elastase, cathepsins G and D, a matrix metalloproteinase, and the “V8” protease from S. aureus, was examined. Of these, only cathepsin D, a lysosomal protease abundant in phagocytes (Bever et al., Inflammation 13: 309-16 (1989); Levy et al., Infect. Immun. 57: 1632-4 (1989)), was able to liberate the N-terminus intact as a small, heparin-binding, polypeptide. Exposure of either iron-saturated or iron-free LF to even small amounts of cathepsin D (1/200th, w:w) for a period as brief as five minutes yielded the N-terminal 6 kDa polypeptide, detectable by immunoblot analysis, using the N-terminal peptide-specific antibody. […] MALDI mass spectrometry analysis indicated a molecular mass of 5741 Da, very close to the value of 5744 Da expected for a LF polypeptide starting at Gly-1 and ending with Ala-49.
Purification of LF from human colostrum and proteolytic liberation of the antimicrobial domain in vitro. Frozen colostrum was thawed at 37° C. and defatted by centrifugation for 40 min at 10,000×g at 4° C. […] LF concentration was determined spectrophotometrically at 280 nm (using E280nm 1 cm 0.1%=1.0402). […]

6 kDa polypeptide: 6 kDa fragment produced by cathepsin D digestion of human LF, amino acids 1-49 of SEQ ID NO: 2 (GRRRRSVQWCAVSQPEATKCFQWQRNMRKVRGPPVSCIKRDSPIQCIQA; listed as Homo sapiens)
reduction of number of viable bacteria on reducing ionic strength ([1]; from 150 mM NaCl to 50 mM NaCl): ~10,000 fold
growth inhibiting activity at elevated ionic strength ([1]; ionic strengths equal to or greater than 200 mM NaCl): essentially lost
stability of the polypeptide on longer exposure to cathepsin D [2]: stable and resistant to further degradation for at least three days

From US6399570B1, “Antimicrobial/endotoxin neutralizing polypeptide” (priority 1999, dated 2002)
